In PubChem BioAssay AID248 (DTP/NCI, 2004):
Toxic doses and inconclusive results are not listed. Cut-off read from the data, not from the text of the source: active = T/C of 150% or more; inactive = T/C below 125%.

Test system: L1210 leukemia ip in BDF1 mice, survival T/C
Assay: NCI In Vivo Anticancer Drug Screen. Data for tumor model L1210 Leukemia (intraperitoneal) in B6D2F1 (BDF1) mice
Details: endpoint: mean survival time, higher = longer survival
How it was run: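 Mice bearing the transplanted tumor received compound or vehicle. Survival of the treated group was divided by that of the vehicle-treated control group to give the ratio.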

[1] = dose: 100.0 mg/kg/injection, schedule: Q04DX003 (ip), vehicle: Klucel (hydroxypropylcellulose) (HPC)
[2] = dose: 100.0 mg/kg/injection, schedule: Q04DX003 (ip), vehicle: saline with Tween-80
[3] = dose: 200.0 mg/kg/injection, schedule: Q04DX003 (ip), vehicle: Klucel (hydroxypropylcellulose) (HPC)
[4] = dose: 200.0 mg/kg/injection, schedule: Q04DX003 (ip), vehicle: saline with Tween-80
[5] = dose: 400.0 mg/kg/injection, schedule: Q04DX003 (ip), vehicle: Klucel (hydroxypropylcellulose) (HPC)
[6] = dose: 400.0 mg/kg/injection, schedule: Q04DX003 (ip), vehicle: saline with Tween-80
[7] = dose: 100.0 mg/kg/injection, schedule: Q04DX002 (ip), vehicle: Klucel (hydroxypropylcellulose) (HPC)
[8] = dose: 200.0 mg/kg/injection, schedule: Q04DX002 (ip), vehicle: Klucel (hydroxypropylcellulose) (HPC)
[9] = dose: 400.0 mg/kg/injection, schedule: Q04DX002 (ip), vehicle: Klucel (hydroxypropylcellulose) (HPC)
[10] = dose: 100.0 mg/kg/injection, schedule: Q01DX001 (ip), vehicle: saline
[11] = dose: 100.0 mg/kg/injection, schedule: Q04DX003 (ip), vehicle: saline
[12] = dose: 200.0 mg/kg/injection, schedule: Q01DX001 (ip), vehicle: saline
[13] = dose: 200.0 mg/kg/injection, schedule: Q04DX003 (ip), vehicle: saline
[14] = dose: 100.0 mg/kg/injection, schedule: Q01DX009 (ip), vehicle: Klucel (hydroxypropylcellulose) (HPC)
[15] = dose: 200.0 mg/kg/injection, schedule: Q01DX009 (ip), vehicle: Klucel (hydroxypropylcellulose) (HPC)
[16] = dose: 400.0 mg/kg/injection, schedule: Q01DX009 (ip), vehicle: Klucel (hydroxypropylcellulose) (HPC)
[17] = dose: 50.0 mg/kg/injection, schedule: Q01DX009 (ip), vehicle: Klucel (hydroxypropylcellulose) (HPC)
[18] = dose: 400.0 mg/kg/injection, schedule: Q01DX001 (ip), vehicle: saline
[19] = dose: 100.0 mg/kg/injection, schedule: Q01DX009 (ip), vehicle: saline with Tween-80
[20] = dose: 200.0 mg/kg/injection, schedule: Q01DX009 (ip), vehicle: saline with Tween-80
[21] = dose: 400.0 mg/kg/injection, schedule: Q01DX009 (ip), vehicle: saline with Tween-80

Measured: T/C

O=S(Sc1ccc(N(CCCl)CCCl)cc1)c1ccc(N(CCCl)CCCl)cc1 (centres undefined)
inactive: dose: 100.0 mg/kg/injection, schedule: Q01DX001 (ip), vehicle: Klucel (hydroxypropylcellulose) (HPC) 95 % of control | dose: 100.0 mg/kg/injection, schedule: Q01DX009 (ip), vehicle: gum acacia 86 % of control | dose: 200.0 mg/kg/injection, schedule: Q01DX001 (ip), vehicle: Klucel (hydroxypropylcellulose) (HPC) 108 % of control | dose: 200.0 mg/kg/injection, schedule: Q01DX009 (ip), vehicle: gum acacia 93 % of control | dose: 400.0 mg/kg/injection, schedule: Q01DX001 (ip), vehicle: Klucel (hydroxypropylcellulose) (HPC) 93 % of control | dose: 400.0 mg/kg/injection, schedule: Q01DX009 (ip), vehicle: gum acacia 122 % of control

O=Cc1cc2c(cc1[N+](=O)[O-])OCO2
inactive: [1] 94 % of control | [2] 101 % of control | [3] 96 % of control | [4] 97 % of control | [5] 92 % of control | [6] 95 % of control

COc1ccc(COC(=O)Nc2cc(OC)ccc2OC)cc1
inactive: [7] 101 % of control | [8] 101 % of control | [9] 107 % of control

NC(=O)c1c[n+]([O-])ccn1
inactive: dose: 50.0 mg/kg/injection, schedule: Q04DX003 (ip), vehicle: saline 108 % of control | [10] 96 % of control | [11] 101 % of control | [12] 98 % of control | [13] 113 % of control

CCN(CC)C(=O)Nc1cccc(O)c1
inactive: [2] 94 % of control | [4] 91 % of control | [6] 93 % of control

COc1ccc2c(c1)C1(C)CCCC(C)C1=CC2=O (centres undefined)
inactive: dose: 25.0 mg/kg/injection, schedule: Q01DX001 (ip), vehicle: other 100 % of control | dose: 50.0 mg/kg/injection, schedule: Q01DX001 (ip), vehicle: other 100 % of control | dose: 100.0 mg/kg/injection, schedule: Q01DX001 (ip), vehicle: other 97 % of control

CC(=O)n1c(O)c(N=NC(=O)c2ccccc2[N+](=O)[O-])c2ccccc21
inactive: [14] 86 % of control | [15] 93 % of control | [16] 89 % of control

O=[N+]([O-])/C=C/c1ccco1
inactive: dose: 18.75 mg/kg/injection, schedule: Q04DX003 (ip), vehicle: saline with Tween-80 101 % of control | dose: 37.5 mg/kg/injection, schedule: Q04DX003 (ip), vehicle: saline with Tween-80 95 % of control | dose: 75.0 mg/kg/injection, schedule: Q04DX003 (ip), vehicle: saline with Tween-80 101 % of control

CNC(=O)Oc1cc2ccccc2cc1C(=O)Nc1cc(OC)ccc1OC
inactive: dose: 25.0 mg/kg/injection, schedule: Q01DX009 (ip), vehicle: Klucel (hydroxypropylcellulose) (HPC) 94 % of control | [17] 101 % of control | [14] 94 % of control | [15] 95 % of control

CC(=O)c1c(C)cc(C(C)(C)C)cc1C
inactive: dose: 100.0 mg/kg/injection, schedule: Q01DX009 (ip), vehicle: saline 97 % of control | [11] 105 % of control | dose: 200.0 mg/kg/injection, schedule: Q01DX009 (ip), vehicle: saline 100 % of control | [13] 92 % of control | dose: 400.0 mg/kg/injection, schedule: Q01DX009 (ip), vehicle: saline 108 % of control | dose: 400.0 mg/kg/injection, schedule: Q04DX003 (ip), vehicle: saline 100 % of control

CC12CCC3c4ccccc4CCC3(CO1)C2 (centres undefined)
inactive: [14] 105 % of control | [1] 95 % of control | [15] 105 % of control | [3] 106 % of control | [16] 104 % of control | [5] 95 % of control

c1ccc2c(c1)ccc1cc3cnccc3cc12
inactive: [10] 95 % of control | [12] 103 % of control | [18] 101 % of control

Cc1nc2ccccc2c(=O)n1-c1ccccc1Cl
inactive: dose: 100.0 mg/kg/injection, schedule: Q01DX001 (ip), vehicle: saline with Tween-80 113 % of control | dose: 200.0 mg/kg/injection, schedule: Q01DX001 (ip), vehicle: saline with Tween-80 108 % of control | dose: 400.0 mg/kg/injection, schedule: Q01DX001 (ip), vehicle: saline with Tween-80 106 % of control

O=C1OC(=O)C2C3CCCCC3=C3CCCCC3C12 (centres undefined)
inactive: [7] 96 % of control | [1] 101 % of control | [8] 101 % of control | [3] 105 % of control | [9] 93 % of control | [5] 103 % of control

Cc1ccccc1OS(=O)(=O)c1ccccc1[N+](=O)[O-]
inactive: [19] 103 % of control | [1] 95 % of control | [20] 90 % of control | [3] 104 % of control | [21] 108 % of control | [5] 90 % of control

COc1c(O)c(O)cc2c[n+]3ccccc3c(C)c12
inactive: [17] 95 % of control

Cc1ccc(C(CO)(CO)OC(CO)(CO)c2ccc(C)c(C)c2)cc1C
inactive: dose: 50.0 mg/kg/injection, schedule: Q01DX001 (ip), vehicle: saline 105 % of control | [10] 97 % of control | [12] 105 % of control | [18] 105 % of control

O=C(CCCCc1ccc([N+](=O)[O-])cc1)Nc1ccc(S(=O)(=O)F)cc1
inactive: [17] 102 % of control | [14] 100 % of control | [15] 88 % of control

c1ccc(Nc2ncn[nH]2)cc1
inactive: dose: 100.0 mg/kg/injection, schedule: Q04DX002 (ip), vehicle: gum acacia 106 % of control | dose: 200.0 mg/kg/injection, schedule: Q04DX002 (ip), vehicle: gum acacia 103 % of control | dose: 400.0 mg/kg/injection, schedule: Q04DX002 (ip), vehicle: gum acacia 117 % of control

C[n+]1ccc(/C=C/Nc2cccc(N)n2)cc1
inactive: dose: 75.0 mg/kg/injection, schedule: Q01DX001 (ip), vehicle: saline 96 % of control | dose: 150.0 mg/kg/injection, schedule: Q01DX001 (ip), vehicle: saline 102 % of control

C[Si](C)(C)Oc1ccc(O[Si](C)(C)C)cc1
inactive: dose: 100.0 mg/kg/injection, schedule: Q01DX009 (ip), vehicle: other 92 % of control | dose: 200.0 mg/kg/injection, schedule: Q01DX009 (ip), vehicle: other 94 % of control | dose: 400.0 mg/kg/injection, schedule: Q01DX009 (ip), vehicle: other 101 % of control

CCOC(=O)c1ccccc1C(=O)c1ccccc1
inactive: [7] 118 % of control | [8] 100 % of control | [9] 95 % of control

COC(=O)c1cccc([N+](=O)[O-])c1
inactive: [10] 96 % of control | [12] 94 % of control | [18] 100 % of control

Cc1cc(=O)[nH]c(N(CCO)CCO)n1
inactive: [19] 92 % of control | [2] 94 % of control | [20] 100 % of control | [4] 96 % of control | [21] 100 % of control | [6] 100 % of control
